Measured values taken from patent US8193237B2, “Indole derivative having IκB kinase β inhibitory activity” (Santen Pharmaceutical Co., Ltd., priority 2007, dated 2012).

Biological target: T1, IKKβ (Homo sapiens, UniProt O14920)
T1 construct: purchased Upstate Biotechnology Inc. 14-485
T1 sequence (O14920 1-756): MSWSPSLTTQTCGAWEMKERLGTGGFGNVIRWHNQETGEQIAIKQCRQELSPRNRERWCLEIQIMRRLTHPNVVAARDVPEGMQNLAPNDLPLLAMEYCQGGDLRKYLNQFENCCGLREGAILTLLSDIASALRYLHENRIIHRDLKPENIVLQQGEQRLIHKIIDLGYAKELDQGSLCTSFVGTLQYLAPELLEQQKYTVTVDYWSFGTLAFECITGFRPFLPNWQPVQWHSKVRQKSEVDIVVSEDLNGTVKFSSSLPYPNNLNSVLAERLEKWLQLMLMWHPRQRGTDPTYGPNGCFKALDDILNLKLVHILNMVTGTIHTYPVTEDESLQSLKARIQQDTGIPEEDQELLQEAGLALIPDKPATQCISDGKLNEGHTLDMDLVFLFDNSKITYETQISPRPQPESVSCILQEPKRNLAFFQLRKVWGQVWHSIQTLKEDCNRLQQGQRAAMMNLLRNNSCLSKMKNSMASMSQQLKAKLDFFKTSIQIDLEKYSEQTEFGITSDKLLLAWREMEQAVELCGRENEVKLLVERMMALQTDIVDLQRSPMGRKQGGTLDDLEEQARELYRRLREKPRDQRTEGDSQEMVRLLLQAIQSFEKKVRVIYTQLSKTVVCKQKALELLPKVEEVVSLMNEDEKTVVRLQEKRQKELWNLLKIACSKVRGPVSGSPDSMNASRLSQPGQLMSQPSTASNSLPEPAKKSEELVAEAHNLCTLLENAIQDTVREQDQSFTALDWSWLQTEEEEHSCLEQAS
Assay: IKKβ inhibition assay by fluorescence polarization (IMAP kit)
Assay type: biochemical
Settings: test compound at 1 μM; inhibition rate exceeding 100% is indicated as 100%
Procedure: In order to evaluate IKKβ inhibitory activity of the present compounds, an IKKβ inhibition assay by the fluorescence polarization method was conducted.
The assay was conducted using IMAP™ IKKβ assay kit (manufactured by Molecular Devices Corporation, catalogue No. R8115) or IMAP™ FP Screening Express kit (manufactured by Molecular Devices Corporation, catalogue No. R8127) and in accordance with the protocol attached to each kit. The specific methods are described below. (Preparation of Reagents)
1) Complete Reaction Buffer: a complete reaction buffer was so prepared as to obtain a final concentration of 10 mM Tris-HCL (pH 7.2), 10 mM magnesium chloride, 0.1% bovine serum albumin, and 1 mM dithiothreitol.
2) Substrate Working Solution: 400 nM of a substrate working solution was prepared by dissolving and diluting a fluorescein-labeled IKKβ substrate peptide (amino acid sequence: GRHDSGLDSMK) with the complete reaction buffer.
3) Enzyme Working Solution: 0.2 units/mL of an enzyme working solution was prepared by diluting IKKβ solution (manufactured by Upstate Biotechnology Inc., catalogue No. 14-485) with the complete reaction buffer.
4) ATP Working Solution: 8 μM of an ATP working solution was prepared by dissolving ATP into ultrapure water followed by diluting it with the complete reaction buffer.
5) IMAP binding solution: After diluting an IMAP binding buffer with ultrapure water, an IMAP binding solution was prepared by diluting an IMAP binding reagent with the diluted IMAP binding buffer.
A test compound was dissolved in dimethylsulfoxide followed by diluting it with the complete reaction buffer to prepare 4 μM of a test compound solution.
1) To a 384-well plate, the test compound solution, the enzyme working solution, the substrate working solution, and the ATP working solution were added in an amount of 5 μL per well.
2) Incubation was performed at a room temperature for 60 minutes under light shielding.
3) The IMAP binding solution was added in an amount of 60 μL per well.
4) Incubation was performed at a room temperature for 30 minutes under light shielding.
5) Fluorescence polarization value of each well was measured by using Analyst™ HT (multimode plate reader manufactured by Molecular Devices Corporation) and Criterion Host Software v2.00 (manufactured by Molecular Devices Corporation).
6) Operations were performed in the same manner as in 1) to 5) except for changing the test compound to 0.4% dimethylsulfoxide. The obtained result was designated as a control.
7) Operations were performed in the same manner as in 1) to 5) except for changing the test compound and the enzyme working solution to 0.4% dimethylsulfoxide and the complete reaction buffer, respectively. The obtained result was designated as a background.
An IKKβ inhibition rate (%) was calculated by the following equation.
IKKβ inhibition rate (%)=100×{1−(fluorescence polarization value of test compound−fluorescence polarization value of background)/(fluorescence polarization value of control−fluorescence polarization value of background)}

NC(=O)Nc1c(C(N)=O)c2ccc(Br)cc2n1O [Compound 1-1, 2-Aminocarbonylamino-6-bromo-1-hydroxyindole-3-carboxamide] showed an inhibition at 1 µM of 86%.

In the case of Cc1ccc2[nH]c(NC(N)=O)c(C(N)=O)c2c1 [Compound 1-2, 2-Aminocarbonylamino-5-methylindole-3-carboxamide], the inhibition at 1 µM is reported as 55%.

Work on CC(=O)Nc1ccc2c(C(N)=O)c(NC(N)=O)[nH]c2c1 [Compound 2-1, 6-Acetylamino-2-aminocarbonylaminoindole-3-carboxamide] yielded an inhibition at 1 µM of 80%.

In the case of NC(=O)Nc1[nH]c2cc(NC(=O)c3ccccc3)ccc2c1C(N)=O [Compound 2-2, 2-Aminocarbonylamino-6-benzoylaminoindole-3-carboxamide], the inhibition at 1 µM is reported as 49%.

Compound NC(=O)Nc1[nH]c2cc(NC(=O)Nc3ccccc3)ccc2c1C(N)=O [Compound 2-3, 2-Aminocarbonylamino-6-(3-phenylureido)indole-3-carboxamide] has an inhibition at 1 µM of 56%.

With CN(C)c1ccc2c(C(N)=O)c(NC(N)=O)[nH]c2c1 [Compound 2-4, 2-Aminocarbonylamino-6-dimethylaminoindole-3-carboxamide] the inhibition at 1 µM was 95%.

NC(=O)Nc1[nH]c2cc(N3CCCC3)ccc2c1C(N)=O [Compound 2-5, 2-Aminocarbonylamino-6-(pyrrolidin-1-yl)indole-3-carboxamide] gave an inhibition at 1 µM of 86%.

NC(=O)Nc1[nH]c2cc(-n3cccc3)ccc2c1C(N)=O [Compound 2-9, 2-Aminocarbonylamino-6-(pyrrol-1-yl)indole-3-carboxamide] showed an inhibition at 1 µM of 100%.

Compound NC(=O)Nc1[nH]c2ccccc2c1C(N)=O [Compound 2-10, 2-Aminocarbonylaminoindole-3-carboxamide] has an inhibition at 1 µM of 75%.

For Cc1c(Br)ccc2c(C(N)=O)c(NC(N)=O)[nH]c12 [Compound 2-11, 2-Aminocarbonylamino-6-bromo-7-methylindole-3-carboxamide], the inhibition at 1 µM was 96%.

NC(=O)Nc1[nH]c2cc(C(F)(F)F)ccc2c1C(N)=O [Compound 2-16, 2-Aminocarbonylamino-6-trifluoromethylindole-3-carboximide] showed an inhibition at 1 µM of 95%.

COC(=O)c1ccc2c(C(N)=O)c(NC(N)=O)[nH]c2c1 [Compound 2-17, 2-aminocarbonylamino-6-methoxycarbonylindole-3-carboxamide] showed an inhibition at 1 µM of 100%.

NC(=O)Nc1[nH]c2cc(Br)ccc2c1C(N)=O [Compound 3-1, 2-Aminocarbonylamino-6-bromoindole-3-carboxamide] showed an inhibition at 1 µM of 100%.

NC(=O)Nc1[nH]c2cc(-c3ccc(F)cc3)ccc2c1C(N)=O [Compound 4-1, 2-Aminocarbonylamino-6-(4-fluorophenyl)indole-3-carboxamide] showed an inhibition at 1 µM of 97%.

With NC(=O)Nc1[nH]c2cc(-c3ccccc3)ccc2c1C(N)=O [Compound 4-2, 2-Aminocarbonylamino-6-phenylindole-3-carboxamide] the inhibition at 1 µM was 100%.

COc1cccc(-c2ccc3c(C(N)=O)c(NC(N)=O)[nH]c3c2)c1 [Compound 4-4, 2-Aminocarbonylamino-6-(3-methoxyphenyl)indole-3-carboxamide] gave an inhibition at 1 µM of 98%.

Work on NC(=O)Nc1[nH]c2cc(-c3cccs3)ccc2c1C(N)=O [Compound 4-8, 2-Aminocarbonylamino-6-(thiophen-2-yl)indole-3-carboxamide] yielded an inhibition at 1 µM of 100%.

Compound NC(=O)Nc1[nH]c2cc(-c3cccnc3)ccc2c1C(N)=O [Compound 4-9, 2-Aminocarbonylamino-6-(pyridin-3-yl)indole-3-carboxamide] has an inhibition at 1 µM of 100%.

NC(=O)Nc1[nH]c2cc(-c3ccccc3F)ccc2c1C(N)=O [Compound 4-10, 2-Aminocarbonylamino-6-(2-fluorophenyl)indole-3-carboxamide] was tested, and the inhibition at 1 µM was 100%.

NC(=O)Nc1[nH]c2cc(-c3cccc(F)c3)ccc2c1C(N)=O [Compound 4-11, 2-Aminocarbonylamino-6-(3-fluorophenyl)indole-3-carboxamide] showed an inhibition at 1 µM of 100%.
